Data published in patent US20060233845A1, “Micro/nanoparticle obtained from lipid-containing marine organisms for use in pharmaceutics and cosmetics” (priority 2002, published 2006).

How the values were obtained:
[1] = tested on: MRSA; test: MRSA growth in vitro; format: cell-based, Staphylococcus aureus; settings: natural substances after the inventive method
[2] = Kreitlow, Dissertation Greifswald 2000; cited from earlier work

SMILES | growth of MRSA in vitro [1] | antibacterial activity [2]
Cc1cc(O)cc2oc3cc(O)cc(O)c3c(=O)c12 [norlichexanthone] | inhibit MRSA-growth in vitro | –
CCCCC/C=C/C=C/C(O)CCCCCCCC(=O)O (stereo not shown) [dimorphecolic acid] | – | antibacterial activity
CCCCCC(O)/C=C/C=C\CCCCCCCC(=O)O (stereo not shown) [coriolic acid] | – | antibacterial activity
CC/C=C\C/C=C\C/C=C\CCCCCCCC(=O)O [linolenic acid, Z,Z,Z-9,12,15-octadecatrienoic acid] | – | antibacterial activity
